{"source": "patent US10633379B2", "about": "“Bromodomain inhibitors” (AbbVie Inc., priority 2016, dated 2020)", "key": {"[1]": {"molecular_target": "BRD4 (BDI_K57-E168) (Homo sapiens (Human), UniProt O60885)", "experiment": "TR-FRET bromodomain binding assay, BRD4 BDI", "conditions": "mean Ki, calculated from IC50, probe Kd and probe concentration", "procedure,_shortened": "(§1)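 Probe displacement measured by TR-FRET after 1 h at room temperature, in 20 mM sodium phosphate pH 6.0 and 2% DMSO. BDI used 12 nM protein with 100 nM probe, BDII 4 nM with 30 nM probe, each with 1 nM europium antibody. Ki derived from fitted IC50, probe Kd and probe level.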"}, "[2]": {"molecular_target": "BRD4 (BDII_E352-M457) (Homo sapiens (Human), UniProt O60885)", "experiment": "TR-FRET bromodomain binding assay, BRD4 BDII", "conditions": "mean Ki, calculated from IC50, probe Kd and probe concentration", "procedure,_shortened": "as §1"}}}
{"compound": "CCNC(=O)c1cc2c(-c3cc(C(C)(O)CF)cnc3Oc3c(C)cc(Cl)cc3C)cn(C)c(=O)c2[nH]1", "note": "(stereo not drawn) [Example 102, 4-[2-(4-chloro-2,6-dimethylphenoxy)-5-(1-fluoro-2-hydroxypropan-2-yl)pyridin-3-yl]-N-ethyl-6-methyl-7-oxo-6,7-dihydro-1H-pyrrolo[2,3-c]pyridine-2-carboxamide]", "values": [{"measurement": "Ki", "setting": "[1]", "result": 309, "unit": "nM"}, {"measurement": "Ki", "setting": "[2]", "result": 2.5, "unit": "nM"}]}
{"compound": "Cc1cc(Cl)cc(C)c1Oc1ncc(C(C)(O)CF)cc1-c1cn(C)c(=O)c2[nH]c(C(=O)NC(C)(C)C)cc12", "note": "(stereo not drawn) [Example 103, N-tert-butyl-4-[2-(4-chloro-2,6-dimethylphenoxy)-5-(1-fluoro-2-hydroxypropan-2-yl)pyridin-3-yl]-6-methyl-7-oxo-6,7-dihydro-1H-pyrrolo[2,3-c]pyridine-2-carboxamide]", "values": [{"measurement": "Ki", "setting": "[1]", "result": 450, "unit": "nM"}, {"measurement": "Ki", "setting": "[2]", "result": 3.3, "unit": "nM"}]}
{"compound": "CCNC(=O)c1cc2c(-c3cc(C(C)(C)O)ccc3Oc3c(C)ccc(F)c3C)cn(C)c(=O)c2[nH]1", "note": "[Example 104, N-ethyl-4-[2-(3-fluoro-2,6-dimethylphenoxy)-5-(2-hydroxypropan-2-yl)phenyl]-6-methyl-7-oxo-6,7-dihydro-1H-pyrrolo[2,3-c]pyridine-2-carboxamide]", "values": [{"measurement": "Ki", "setting": "[1]", "result": 375, "unit": "nM"}, {"measurement": "Ki", "setting": "[2]", "result": 1.2, "unit": "nM"}]}
{"compound": "CCNC(=O)c1cc2c(-c3cc(C(C)(O)CC(C)C)ccc3Oc3c(C)cccc3C)cn(C)c(=O)c2[nH]1", "note": "(stereo not drawn) [Example 105, 4-[2-(2,6-dimethylphenoxy)-5-(2-hydroxy-4-methylpentan-2-yl)phenyl]-N-ethyl-6-methyl-7-oxo-6,7-dihydro-1H-pyrrolo[2,3-c]pyridine-2-carboxamide]", "values": [{"measurement": "Ki", "setting": "[1]", "result": 1340, "unit": "nM"}, {"measurement": "Ki", "setting": "[2]", "result": 2.5, "unit": "nM"}]}
{"compound": "CCNC(=O)c1cc2c(-c3cc(C(C)(C)O)ccc3Oc3c(C)cc(C(C)(C)O)cc3C)cn(C)c(=O)c2[nH]1", "note": "[Example 107, N-ethyl-4-{5-(2-hydroxypropan-2-yl)-2-[4-(2-hydroxypropan-2-yl)-2,6-dimethylphenoxy]phenyl}-6-methyl-7-oxo-6,7-dihydro-1H-pyrrolo[2,3-c]pyridine-2-carboxamide]", "values": [{"measurement": "Ki", "setting": "[1]", "result": 231, "unit": "nM"}, {"measurement": "Ki", "setting": "[2]", "result": 0.8, "unit": "nM"}]}
{"compound": "Cc1cc(C(C)(C)O)cc(C)c1Oc1ccc(C(C)(C)O)cc1-c1cn(C)c(=O)c2[nH]c(C(=O)NC(C)(C)C)cc12", "note": "[Example 108, N-tert-butyl-4-{5-(2-hydroxypropan-2-yl)-2-[4-(2-hydroxypropan-2-yl)-2,6-dimethylphenoxy]phenyl}-6-methyl-7-oxo-6,7-dihydro-1H-pyrrolo[2,3-c]pyridine-2-carboxamide]", "values": [{"measurement": "Ki", "setting": "[1]", "result": 175, "unit": "nM"}, {"measurement": "Ki", "setting": "[2]", "result": 1.6, "unit": "nM"}]}
{"compound": "CCNC(=O)c1cc2c(-c3cc(C(C)(C)O)cnc3Oc3c(C)ccc(Cl)c3C)cn(C)c(=O)c2[nH]1", "note": "[Example 109, 4-[2-(3-chloro-2,6-dimethylphenoxy)-5-(2-hydroxypropan-2-yl)pyridin-3-yl]-N-ethyl-6-methyl-7-oxo-6,7-dihydro-1H-pyrrolo[2,3-c]pyridine-2-carboxamide]", "values": [{"measurement": "Ki", "setting": "[1]", "result": 169, "unit": "nM"}, {"measurement": "Ki", "setting": "[2]", "result": 1.1, "unit": "nM"}]}
{"compound": "CCNC(=O)c1cc2c(-c3cc(C(C)(C)O)ccc3-c3ccc(OC(F)(F)F)cc3)cn(C)c(=O)c2[nH]1", "note": "[Example 110, N-ethyl-4-[4-(2-hydroxypropan-2-yl)-4′-(trifluoromethoxy) [1,1′-biphenyl]-2-yl]-6-methyl-7-oxo-6,7-dihydro-1H-pyrrolo[2,3-c]pyridine-2-carboxamide]", "values": [{"measurement": "Ki", "setting": "[1]", "result": 224, "unit": "nM"}, {"measurement": "Ki", "setting": "[2]", "result": 2, "unit": "nM"}]}
{"compound": "CCNC(=O)c1cc2c(-c3cc(C(C)(C)O)ccc3C3=CCC(F)(F)CC3)cn(C)c(=O)c2[nH]1", "note": "[Example 111, 4-[4′,4′-difluoro-4-(2-hydroxypropan-2-yl)[2′,3′,4′,5′-tetrahydro[1,1′-biphenyl]]-2-yl]-N-ethyl-6-methyl-7-oxo-6,7-dihydro-1H-pyrrolo[2,3-c]pyridine-2-carboxamide]", "values": [{"measurement": "Ki", "setting": "[1]", "result": 150, "unit": "nM"}, {"measurement": "Ki", "setting": "[2]", "result": 1.4, "unit": "nM"}]}
{"compound": "Cc1cc(F)cc(C)c1Oc1ccc(C(C)(C)O)cc1-c1cn(C)c(=O)c2[nH]c(C(N)=O)cc12", "note": "[Example 112, 4-[2-(4-fluoro-2,6-dimethylphenoxy)-5-(2-hydroxypropan-2-yl)phenyl]-6-methyl-7-oxo-6,7-dihydro-1H-pyrrolo[2,3-c]pyridine-2-carboxamide]", "values": [{"measurement": "Ki", "setting": "[1]", "result": 332, "unit": "nM"}, {"measurement": "Ki", "setting": "[2]", "result": 2.3, "unit": "nM"}]}
{"compound": "CCNC(=O)c1cc2c(-c3cc(C(C)(C)O)ccc3C3=CCC(C)CC3)cn(C)c(=O)c2[nH]1", "note": "(stereo not drawn) [Example 113, N-ethyl-4-[4-(2-hydroxypropan-2-yl)-4′-methyl[2′,3′,4′,5′-tetrahydro[1,1′-biphenyl]]-2-yl]-6-methyl-7-oxo-6,7-dihydro-1H-pyrrolo[2,3-c]pyridine-2-carboxamide]", "values": [{"measurement": "Ki", "setting": "[1]", "result": 98, "unit": "nM"}, {"measurement": "Ki", "setting": "[2]", "result": 1.5, "unit": "nM"}]}
{"compound": "CCNC(=O)c1cc2c(-c3cc(C(C)(C)O)ccc3C3=CCCC3)cn(C)c(=O)c2[nH]1", "note": "[Example 114, 4-[2-(cyclopent-1-en-1-yl)-5-(2-hydroxypropan-2-yl)phenyl]-N-ethyl-6-methyl-7-oxo-6,7-dihydro-1H-pyrrolo[2,3-c]pyridine-2-carboxamide]", "values": [{"measurement": "Ki", "setting": "[1]", "result": 96, "unit": "nM"}, {"measurement": "Ki", "setting": "[2]", "result": 1.3, "unit": "nM"}]}
{"compound": "CCNC(=O)c1cc2c(-c3cc(C(C)(O)CO)ccc3Oc3c(C)cccc3Cl)cn(C)c(=O)c2[nH]1", "note": "(stereo not drawn) [Example 115, 4-[2-(2-chloro-6-methylphenoxy)-5-(1,2-dihydroxypropan-2-yl)phenyl]-N-ethyl-6-methyl-7-oxo-6,7-dihydro-1H-pyrrolo[2,3-c]pyridine-2-carboxamide]", "values": [{"measurement": "Ki", "setting": "[1]", "result": 323, "unit": "nM"}, {"measurement": "Ki", "setting": "[2]", "result": 1.4, "unit": "nM"}]}
{"compound": "Cc1cccc(Cl)c1Oc1ccc(C(C)(O)CO)cc1-c1cn(C)c(=O)c2[nH]c(C(=O)NC(C)(C)C)cc12", "note": "(stereo not drawn) [Example 116, N-tert-butyl-4-[2-(2-chloro-6-methylphenoxy)-5-(1,2-dihydroxypropan-2-yl)phenyl]-6-methyl-7-oxo-6,7-dihydro-1H-pyrrolo[2,3-c]pyridine-2-carboxamide]", "values": [{"measurement": "Ki", "setting": "[1]", "result": 756, "unit": "nM"}, {"measurement": "Ki", "setting": "[2]", "result": 2.9, "unit": "nM"}]}
{"compound": "Cc1cccc(C)c1Oc1ccc(C(C)(C)O)cc1-c1cn(C)c(=O)c2[nH]c(C(N)=O)cc12", "note": "[Example 117, 4-[2-(2,6-dimethylphenoxy)-5-(2-hydroxypropan-2-yl)phenyl]-6-methyl-7-oxo-6,7-dihydro-1H-pyrrolo[2,3-c]pyridine-2-carboxamide]", "values": [{"measurement": "Ki", "setting": "[1]", "result": 215, "unit": "nM"}, {"measurement": "Ki", "setting": "[2]", "result": 1.5, "unit": "nM"}]}
{"compound": "Cc1cc(F)cc(Cl)c1Oc1ccc(C(C)(O)CO)cc1-c1cn(C)c(=O)c2[nH]c(C(=O)NC(C)(C)C)cc12", "note": "(stereo not drawn) [Example 118, N-tert-butyl-4-[2-(2-chloro-4-fluoro-6-methylphenoxy)-5-(1,2-dihydroxypropan-2-yl)phenyl]-6-methyl-7-oxo-6,7-dihydro-1H-pyrrolo[2,3-c]pyridine-2-carboxamide]", "values": [{"measurement": "Ki", "setting": "[1]", "result": 1390, "unit": "nM"}, {"measurement": "Ki", "setting": "[2]", "result": 10.4, "unit": "nM"}]}
{"compound": "CCNC(=O)c1cc2c(-c3cc(C(C)(O)CO)ccc3Oc3c(C)cc(F)cc3Cl)cn(C)c(=O)c2[nH]1", "note": "(stereo not drawn) [Example 119, 4-[2-(2-chloro-4-fluoro-6-methylphenoxy)-5-(1,2-dihydroxypropan-2-yl)phenyl]-N-ethyl-6-methyl-7-oxo-6,7-dihydro-1H-pyrrolo[2,3-c]pyridine-2-carboxamide]", "values": [{"measurement": "Ki", "setting": "[1]", "result": 346, "unit": "nM"}, {"measurement": "Ki", "setting": "[2]", "result": 2.2, "unit": "nM"}]}
{"compound": "CNC(=O)c1cc2c(-c3cc(C(C)(C)O)ccc3Oc3c(C)cc(F)cc3C)cn(C)c(=O)c2[nH]1", "note": "[Example 120, 4-[2-(4-fluoro-2,6-dimethylphenoxy)-5-(2-hydroxypropan-2-yl)phenyl]-N,6-dimethyl-7-oxo-6,7-dihydro-1H-pyrrolo[2,3-c]pyridine-2-carboxamide]", "values": [{"measurement": "Ki", "setting": "[1]", "result": 161, "unit": "nM"}, {"measurement": "Ki", "setting": "[2]", "result": 0.8, "unit": "nM"}]}
{"compound": "Cc1cc(F)cc(C)c1Oc1ccc(C(C)(C)O)cc1-c1cn(C)c(=O)c2[nH]c(C(=O)NC3CC3)cc12", "note": "[Example 121, N-cyclopropyl-4-[2-(4-fluoro-2,6-dimethylphenoxy)-5-(2-hydroxypropan-2-yl)phenyl]-6-methyl-7-oxo-6,7-dihydro-1H-pyrrolo[2,3-c]pyridine-2-carboxamide]", "values": [{"measurement": "Ki", "setting": "[1]", "result": 356, "unit": "nM"}, {"measurement": "Ki", "setting": "[2]", "result": 0.6, "unit": "nM"}]}
{"compound": "CCNC(=O)c1cc2c(-c3cc(C4(O)CCC4)ccc3Oc3c(C)cc(F)cc3C)cn(C)c(=O)c2[nH]1", "note": "[Example 122, N-ethyl-4-[2-(4-fluoro-2,6-dimethylphenoxy)-5-(1-hydroxycyclobutyl)phenyl]-6-methyl-7-oxo-6,7-dihydro-1H-pyrrolo[2,3-c]pyridine-2-carboxamide]", "values": [{"measurement": "Ki", "setting": "[1]", "result": 308, "unit": "nM"}, {"measurement": "Ki", "setting": "[2]", "result": 2, "unit": "nM"}]}
{"compound": "CCNC(=O)c1cc2c(-c3cc(C4(O)COC4)ccc3Oc3c(C)cc(F)cc3C)cn(C)c(=O)c2[nH]1", "note": "[Example 123, N-ethyl-4-[2-(4-fluoro-2,6-dimethylphenoxy)-5-(3-hydroxyoxetan-3-yl)phenyl]-6-methyl-7-oxo-6,7-dihydro-1H-pyrrolo[2,3-c]pyridine-2-carboxamide]", "values": [{"measurement": "Ki", "setting": "[1]", "result": 168, "unit": "nM"}, {"measurement": "Ki", "setting": "[2]", "result": 1, "unit": "nM"}]}
{"compound": "CCNC(=O)c1cc2c(-c3cc(C(C)(C)O)cnc3Oc3c(C)cc(C(C)(C)O)cc3C)cn(C)c(=O)c2[nH]1", "note": "[Example 124, N-ethyl-4-{5-(2-hydroxypropan-2-yl)-2-[4-(2-hydroxypropan-2-yl)-2,6-dimethylphenoxy]pyridin-3-yl}-6-methyl-7-oxo-6,7-dihydro-1H-pyrrolo[2,3-c]pyridine-2-carboxamide]", "values": [{"measurement": "Ki", "setting": "[1]", "result": 269, "unit": "nM"}, {"measurement": "Ki", "setting": "[2]", "result": 1.7, "unit": "nM"}]}
{"compound": "Cc1cc(C(C)(C)O)cc(C)c1Oc1ncc(C(C)(C)O)cc1-c1cn(C)c(=O)c2[nH]c(C(=O)NC(C)(C)C)cc12", "note": "[Example 125, N-tert-butyl-4-{5-(2-hydroxypropan-2-yl)-2-[4-(2-hydroxypropan-2-yl)-2,6-dimethylphenoxy]pyridin-3-yl}-6-methyl-7-oxo-6,7-dihydro-1H-pyrrolo[2,3-c]pyridine-2-carboxamide]", "values": [{"measurement": "Ki", "setting": "[1]", "result": 140, "unit": "nM"}, {"measurement": "Ki", "setting": "[2]", "result": 3.5, "unit": "nM"}]}
{"compound": "CCNC(=O)c1cc2c(-c3cc(C(C)(O)CO)ccc3Oc3c(C)cccc3C(F)(F)F)cn(C)c(=O)c2[nH]1", "note": "(stereo not drawn) [Example 126, 4-{5-(1,2-dihydroxypropan-2-yl)-2-[2-methyl-6-(trifluoromethyl)phenoxy]phenyl}-N-ethyl-6-methyl-7-oxo-6,7-dihydro-1H-pyrrolo[2,3-c]pyridine-2-carboxamide]", "values": [{"measurement": "Ki", "setting": "[1]", "result": 1510, "unit": "nM"}, {"measurement": "Ki", "setting": "[2]", "result": 6.3, "unit": "nM"}]}
